The text below walks through data of patent publication US9914709B2, “Compositions and methods of treating HIV-1 infections using same” (YALE UNIVERSITY, priority 2013, dated 2018).

Where two headings read alike, the source gives them in different places. Marks after values point to notes of the source that are not given here.

The test system of data set [1] is IIIB strain of HIV-1 (wild-type). The data set is described as follows: Anti-HIV-1 activity, MT-2 cells infected with wild-type HIV-1 (IIIB), MTT method. It is filed as cell-based. The conditions noted are these: for EC50: Human immunodeficiency virus 1, IIIB, MT2, read-out: EC50 WT.
For data set [2], the system named is HIV-1 Y181C variant. Put plainly: microbe, parasite or virus in culture. It is filed as cell-based.
The test system of data set [3] is HIV-1 K103N/Y181C variant. The data set is described as follows: microbe, parasite or virus in culture. Format: cell-based.
A short description of data set [4]: physchem. The conditions noted are these: for increase in S: 48 h; for Aqueous Solubility (S): Table 5, pH 6.5; for solubility at 48 h: 25 °C, thermodynamic from solid. The procedure:
The compounds were dissolved in Britton-Robinson buffer and stirred in vials for 48 hours at 25° C. The pH of the buffer solutions was measured by a Corning General Purpose pH Combination probe (4136L21).
For measurement of aqueous solubility, the pH of the buffer solutions was measured by Corning Combination pH Electrodes (4136L21) pH meter with Ag/AgCl glass electrode. […] An Ika® RCT basic magnetic stirrer was used to mix the two phases.
The equilibrium solubility of the non-ionized form of the samples was determined by the shake flask method. For each reported solubility result, two or three independent shake-flask experiments were carried out in parallel. For each experiment the 5 mg of the solid was added to 5 mL of the buffer in a vial. […] The standards and samples were measured by UV spectrophotometry at the maximum wavelength of the individual compounds.

Data set [5] in a line: in vitro. As to conditions: human.
The conditions of data set [6]: cited from earlier work.
Where [7] appears, read: Human immunodeficiency virus 1, MT2, read-out: EC50 K103N/Y181C.
Setting [8] is: Human immunodeficiency virus 1, MT2, read-out: EC50, Y181C variant.
Where [9] appears, read: Human immunodeficiency virus 1, MT2, read-out: EC50 Y181C.

As to `COc1nc(Nc2ccc(C#N)c(OCC=C(C)C)c2)nc(OCCN2CCOCC2)n1` [Compound 2j, 4-((4-methoxy-6-(2-morpholinoethoxy)-1,3,5-triazin-2-yl)amino)-2-((3-methylbut-2-en-1-yl)oxy)benzonitrile], in data set [1] (relative to parent lacking the morpholinoalkoxy group (2a; 10a)), the “reduction in wild-type potency” value is on record as 9 fold. In addition, the “activity in the wild-type cell assay less” value in data set [1] (than rilpivirine or dapivirine) was found to be 100 fold. In addition, in data set [2], the “activity towards the Y181C-containing viral variant” value was “does not show activity”.

For the compound `Cc1cc(C)c(Nc2cc(OCCN3CCOCC3)nc(Nc3ccc(C#N)cc3)n2)c(C)c1` [Compound 5a, 4-((4-(mesitylamino)-6-(2-morpholinoethoxy)pyrimidin-2-yl)amino)benzonitrile], the EC50 in data set [3] (setting [7]) was 60 nM; in data set [2] (setting [8]) it was 700 nM; in data set [2] (setting [9]), 700 nM. Moreover, the “increase in S” value in data set [4] amounted to 83 fold. Also, in data set [4], the “Aqueous Solubility (S)” value was found to be 12.5 µg/mL.

Turning to `Cc1cc(C)c(Nc2cc(OCCCN3CCOCC3)nc(Nc3ccc(C#N)cc3)n2)c(C)c1` [Compound 5b, 4-((4-(mesitylamino)-6-(3-morpholinopropoxy)pyrimidin-2-yl)amino)benzonitrile], the EC50 in data set [3] (setting [7]) came to 38 nM; in data set [2] (setting [8]), 480 nM; in data set [2] (setting [9]), 480 nM. Also, in data set [4], the “increase in S” value was 182 fold. For the same compound, in data set [4], the “Aqueous Solubility (S)” value is 27.3 µg/mL.

Turning to `Cc1cc(/C=C/C#N)cc(C)c1Nc1cc(OCCCN2CCOCC2)nc(Nc2ccc(C#N)cc2)n1` [Compound 5c, (E)-4-((4-((4-(2-cyanovinyl)-2,6-dimethylphenyl)amino)-6-(3-morpholinopropoxy)pyrimidin-2-yl)amino)benzonitrile], the EC50 in data set [3] (setting [7]) came to 3 nM; in data set [1], 3.7 nM; in data set [2] (setting [9]), 15 nM. The CC50 in data set [5] is 6400 nM. Moreover, the solubility at 48 h in data set [4] (pH 6.5, aqueous buffer) came out at 2 µg/mL.

For the compound `N#C/C=C/c1cc(F)c(Nc2cc(OCCCN3CCOCC3)nc(Nc3ccc(C#N)cc3)n2)c(F)c1` [Compound 5d, (E)-4-((4-((4-(2-cyanovinyl)-2,6-difluorophenyl)amino)-6-(3-morpholinopropoxy)pyrimidin-2-yl)amino)benzonitrile], the EC50 in data set [3] (setting [7]) was found to be 7.1 nM; in data set [1] it was 4.1 nM; in data set [2] (setting [9]), 150 nM. Further, the CC50 in data set [5] was 18000 nM.

Turning to `Cc1cc(C)c(Nc2nc(Nc3ccc(C#N)cc3)nc(OCCN3CCOCC3)n2)c(C)c1` [Compound 6a, 4-((4-(mesitylamino)-6-(2-morpholinoethoxy)-1,3,5-triazin-2-yl)amino)benzonitrile], the results for the EC50 in data set [3] (setting [7]) and in data set [2] (setting [9]) were 110 nM and 700 nM, respectively. Moreover, the “Aqueous Solubility (S)” value in data set [4] is 4.42 µg/mL.

`Cc1cc(C)c(Nc2nc(Nc3ccc(C#N)cc3)nc(OCCCN3CCOCC3)n2)c(C)c1` [Compound 6b, 4-((4-(mesitylamino)-6-(3-morpholinopropoxy)-1,3,5-triazin-2-yl)amino)benzonitrile]: the EC50 is 31 nM in data set [3] (Human immunodeficiency virus 1, MT2, read-out: EC50, K103N/Y181C variant); 31 nM in data set [3] (setting [7]); 310 nM in data set [2] (setting [8]); 310 nM in data set [2] (setting [9]). For the same compound, the “Aqueous Solubility (S)” value in data set [4] was determined as 15.3 µg/mL.

Take `Cc1cc(C#N)cc(C)c1Nc1nc(Nc2ccc(C#N)cc2)nc(OCCCN2CCOCC2)n1` [Compound 6c, 4-((4-((4-cyanophenyl)amino)-6-(3-morpholinopropoxy)-1,3,5-triazin-2-yl)amino)-3,5-dimethylbenzonitrile]: the EC50 in data set [3] (setting [7]) amounted to 42 nM; in data set [2] (setting [9]) it was 1000 nM. Further, the “Aqueous Solubility (S)” value in data set [4] stood at 13.3 µg/mL.

As for `Cc1cc(/C=C/C#N)cc(C)c1Nc1nc(Nc2ccc(C#N)cc2)nc(OCCCN2CCOCC2)n1` [Compound 6d, (E)-4-((4-((4-(2-cyanovinyl)-2,6-dimethylphenyl)amino)-6-(3-morpholinopropoxy)-1,3,5-triazin-2-yl)amino)benzonitrile], the solubility at 48 h in data set [4] (aqueous buffer) stood at 14.2 µg/mL. Further, in data set [4], the “increase in S” value is on record as 100 fold and the “Aqueous Solubility (S)” value came to 14.2 µg/mL.

On to `Cc1cc(F)c(Nc2nc(Nc3ccc(C#N)cc3)nc(OCCCN3CCOCC3)n2)c(F)c1` [Compound 6e, 4-((4-((2,6-difluoro-4-methylphenyl)amino)-6-(3-morpholinopropoxy)-1,3,5-triazin-2-yl)amino)benzonitrile], for which the EC50 in data set [3] (setting [7]) stood at 70 nM; in data set [2] (setting [9]), 350 nM. For the same compound, the “Aqueous Solubility (S)” value in data set [4] was 22.9 µg/mL.

Turning to `CCc1cc(F)c(Nc2nc(Nc3ccc(C#N)cc3)nc(OCCCN3CCOCC3)n2)c(F)c1` [Compound 6f, 4-((4-((4-ethyl-2,6-difluorophenyl)amino)-6-(3-morpholinopropoxy)-1,3,5-triazin-2-yl)amino)benzonitrile], the EC50 was found to be 50 nM in data set [3] (setting [7]) and 500 nM in data set [2] (setting [9]).

For the compound `CC(C)c1cc(F)c(Nc2nc(Nc3ccc(C#N)cc3)nc(OCCCN3CCOCC3)n2)c(F)c1` [Compound 6g, 4-((4-((2,6-difluoro-4-isopropylphenyl)amino)-6-(3-morpholinopropoxy)-1,3,5-triazin-2-yl)amino)benzonitrile], the results for the EC50 in data set [3] (setting [7]) and in data set [2] (setting [9]) were 30 nM and 270 nM, respectively.

As for `N#Cc1ccc(Nc2nc(Nc3c(F)cc(C4CC4)cc3F)nc(OCCCN3CCOCC3)n2)cc1` [Compound 6h, 4-((4-((4-cyclopropyl-2,6-difluorophenyl)amino)-6-(3-morpholinopropoxy)-1,3,5-triazin-2-yl)amino)benzonitrile], the EC50 in data set [3] (setting [7]) amounted to 150 nM; in data set [2] (setting [9]), 1100 nM.

Turning to `N#CCCc1cc(F)c(Nc2nc(Nc3ccc(C#N)cc3)nc(OCCCN3CCOCC3)n2)c(F)c1` [Compound 6i, 4-((4-((4-(2-cyanoethyl)-2,6-difluorophenyl)amino)-6-(3-morpholinopropoxy)-1,3,5-triazin-2-yl)amino)benzonitrile], the EC50 in data set [3] (setting [7]) was found to be 20 nM; in data set [1], 5 nM; in data set [2] (setting [9]), 230 nM. Moreover, the CC50 in data set [5] was determined as 27000 nM. Moreover, the solubility at 48 h in data set [4] (pH 6.5, aqueous buffer) is 25.4 µg/mL.

Take `N#C/C=C/c1cc(F)c(Nc2nc(Nc3ccc(C#N)cc3)nc(OCCCN3CCOCC3)n2)c(F)c1` [Compound 6j, (E)-4-((4-((4-(2-cyanovinyl)-2,6-difluorophenyl)amino)-6-(3-morpholinopropoxy)-1,3,5-triazin-2-yl)amino)benzonitrile]: the EC50 in data set [3] (setting [7]) amounted to 46 nM; in data set [1] it was 14 nM; in data set [2] (setting [9]), 630 nM. The same compound registered a CC50 in data set [5] of 6500 nM.

With `Cc1cc(C)c(Nc2nc(Nc3ccc(C#N)cc3)nc(OCCC3CCNCC3)n2)c(C)c1` [Compound 12a, 4-((4-(mesitylamino)-6-(2-(piperidin-4-yl)ethoxy)-1,3,5-triazin-2-yl)amino)benzonitrile], the EC50 in data set [3] (setting [7]) was found to be 42 nM; in data set [2] (setting [9]) it was 1000 nM.

For the compound `Cc1cc(C)c(Nc2nc(Nc3ccc(C#N)cc3)nc(OCCCC3CCNCC3)n2)c(C)c1` [Compound 12b, 4-((4-(mesitylamino)-6-(3-(piperidin-4-yl)propoxy)-1,3,5-triazin-2-yl)amino)benzonitrile], the EC50 in data set [3] (setting [7]) stood at 140 nM; in data set [2] (setting [9]), 1200 nM.

As for `Cc1cc(/C=C/C#N)cc(C)c1Nc1nc(NCCCN2CCOCC2)nc(Nc2ccc(C#N)cc2)n1` [JLJ0596, (E)-4-((4-((4-(2-cyanovinyl)-2,6-dimethylphenyl)amino)-6-((3-morpholinopropyl)amino)-1,3,5-triazin-2-yl)amino)benzonitrile], the values for the EC50 in data set [3] (setting [7]), in data set [1] and in data set [2] (setting [9]) were 68 nM, 7 nM and 510 nM, respectively. This compound also gave a CC50 in data set [5] of 1800 nM.

For `N#C/C=C/c1cc(F)c(Nc2nc(NCCCN3CCOCC3)nc(Nc3ccc(C#N)cc3)n2)c(F)c1` [JLJ0597, (E)-4-((4-((4-(2-cyanovinyl)-2,6-difluorophenyl)amino)-6-((3-morpholinopropyl)amino)-1,3,5-triazin-2-yl)amino)benzonitrile], the results for the EC50 in data set [3] (setting [7]), in data set [1] and in data set [2] (setting [9]) were 16 nM, 5.7 nM and 75 nM, respectively. Also, the CC50 in data set [5] came to 7000 nM.

With `Cc1cc(/C=C/C#N)cc(C)c1Nc1cc(NCCCN2CCOCC2)nc(Nc2ccc(C#N)cc2)n1` [JLJ0618, (E)-4-((4-((4-(2-cyanovinyl)-2,6-dimethylphenyl)amino)-6-((3-morpholinopropyl)amino)pyrimidin-2-yl)amino)benzonitrile], the EC50 in data set [3] (setting [7]) stood at 2 nM; in data set [1], 3 nM; in data set [2] (setting [9]) it was 17 nM. For the same compound, in data set [5], the CC50 amounted to 4500 nM.

As to `N#C/C=C/c1cc(F)c(Nc2cc(NCCCN3CCOCC3)nc(Nc3ccc(C#N)cc3)n2)c(F)c1` [JLJ0619, (E)-4-((4-((4-(2-cyanovinyl)-2,6-difluorophenyl)amino)-6-((3-morpholinopropyl)amino)pyrimidin-2-yl)amino)benzonitrile], the EC50 in data set [3] (setting [7]) is 34 nM; in data set [1], 4.5 nM; in data set [2] (setting [9]), 470 nM. The compound also gave a CC50 in data set [5] of 2200 nM.

Regarding `CC(C)=CCOc1cc(NC(=S)c2ccoc2C)ccc1Cl` [UC-781], the solubility in data set [6] (Yang et al. 2008) was less than 0.03 µg/mL.

In the case of `Cc1cc(C#N)cc(C)c1Oc1nc(Nc2ccc(C#N)cc2)nc(N)c1Br` [etravirine], the “Aqueous Solubility (S)” value in data set [6] (Table 5, literature values (Morelock 1994; Weuts 2011)) was <<1^b μg/mL. In data set [6] (literature values), the aqueous solubility result is listed as “lower than 1 μg/mL”.
